Literature values in US20210322384A1, “Method of Treatment for Ketamine Infusion” (Eleusis therapeutics us, inc., priority 2018, published 2021).
Like-named read-outs stand apart in the source and are kept apart here.

Experiments:
patients [1] = settings: current state of the art ketamine treatments; industry standard
patients [2] = settings: for improvement in MADRS score relative to standard antidepressants alone: plus standard antidepressants

Compound | response rate in alleviating depression symptoms (patients [1]) [%] | reduction in MADRS score relative to control group (patients [2]; after 25 days) | improvement in MADRS score relative to standard antidepressants alone (patients [2]; at 24 hours after intranasal 84 mg) | improvement in MADRS score relative to standard antidepressants alone (patients [2]; at four hours after intranasal 84 mg) | side effects of nasal spray protocol (patients [2]; intranasal 84 mg aerosol spray)
CNC1(c2ccccc2Cl)CCCCC1=O (centres unmarked) [ketamine] | ~70 | – | – | – | –
CN[C@]1(c2ccccc2Cl)CCCCC1=O [esketamine] | – | did not result in any significant reduction | significantly greater improvement | significantly greater improvement | significant side effects
